Patent US7691594B2, “Anticancer agent” (Fujifilm Corporation, priority 2006, dated 2010)

What was measured:
[1] = tested on: messenger RNA of PCDH20 gene in ABC-1 cells; experiment: RT-PCR of PCDH20 gene messenger RNA expression after inhibitor treatment, ABC-1 cells; type: cell-based, human
Method: (§1) Specifically, the results were obtained by adding either 5-aza-deoxycytidine (5-aza-dCyd) serving as a DNA methyltransferase inhibitor to each cell type at concentrations of 5 or 10 μM for 5 days and/or trichostatin A (TSA) serving as a non-specific inhibitory substance for histone deacetylase to each cell type at concentrations of […] or […] for 12 hours before cell harvest during culture, and then carrying out RT-PCR, followed by comparison of the expression levels of PCDH20 gene messenger RNA via electrophoresis. The expression level of GAPDH was used as a control in RT-PCR.
(§2) Cell lines used herein were squamous cell lines EBC-1, LK-2, PC10, VMRC-LCP, LC-1sq, and ACC-LC-73; adenocarcinoma cell lines 11-18, A549, ABC-1, RERF-LC-OK, VMRC-LCD, SK-LC-3, and RERF-LC-KJ; and large cell carcinoma cell lines KNS-62, 86-2, LU65, PC-13, ACC-LC-33, NCI-H460, and LU99A. As lung cancer samples derived from clinical specimens, paraffin-embedded samples derived from 53 types of adenocarcinoma and rapidly-frozen samples derived from 59 types of adjacent normal site were used. Cancer samples derived from clinical specimens were obtained from the National Cancer Center, Hokushin General Hospital of Nagano Prefectural Welfare Federation and used under agreement with each patient and approval of the ethical committee of each organization. […]

[2] = tested on: messenger RNA of PCDH20 gene in LU65 cells; experiment: RT-PCR of PCDH20 gene messenger RNA expression after inhibitor treatment, LU65 cells; type: cell-based, human
Method: as §1, §2

[3] = 5-aza-dCyd 5 μM and 10 μM for 5 days, GAPDH control
[4] = TSA 100 ng/ml for 12 hours before harvest together with 5-aza-dCyd

Structure (SMILES)	expression level of messenger RNA of PCDH20 gene (RT-PCR) [1, 3]	expression level of messenger RNA of PCDH20 gene (RT-PCR) [2, 3]	expression level of messenger RNA of PCDH20 gene (RT-PCR), combination [1, 4]	expression level of messenger RNA of PCDH20 gene (RT-PCR), combination [2, 4]
Nc1ncn([C@H]2C[C@H](O)[C@@H](CO)O2)c(=O)n1 [5-aza-deoxycytidine]	transcription suppression was canceled	transcription suppression was canceled		
CC(/C=C/C(=O)NO)=C\[C@@H](C)C(=O)c1ccc(N(C)C)cc1 [trichostatin A]			elevated synergistically	elevated synergistically
